Data published in publication PMC9569995, “Study of Biological Activities and ADMET-Related Properties of Salicylanilide-Based Peptidomimetics” (International Journal of Molecular Sciences, 2022).
In brackets after ≈: the same amount, converted by molar mass. Several values for one entry are separate records, joined by “and”; a condition that tells them apart may be missing. Equal entries are not always repeated. Where two headings read alike, the source gives them in different places.

Legend:
[1] = tested on: methicillin-resistant S. aureus SA 630; assay: In vitro antibacterial evaluation, MIC by microtitration broth method; conditions: Staphylococcus aureus
[2] = tested on: Enterococcus faecalis ATCC 29212; assay: as above
[3] = tested on: human monocytic leukemia cell line THP-1; assay: In vitro cell viability analysis (CCK-8); assay type: cell-based; conditions: ± SD, n = 6, medium with 10% FBS, 24 h
Method: Human monocytic leukemia THP-1 cells obtained from the European Collection of Cell Cultures (ECACC, Salisbury, UK) were used for in vitro antiproliferative assays. They were routinely cultured in Roswell Park Memorial Institute RPMI 1640 medium supplemented with 10% fetal bovine serum (FBS), 2% L-glutamine, 1% penicillin, and streptomycin (all from Sigma-Aldrich) at 37 °C with 5% CO2. The cells were incubated in a complete medium (i.e., containing FBS) with test compounds at 37 °C with 5% CO2 for 24 h, similarly as we described previously. The effect of the test compounds dissolved in DMSO on cell viability was determined using a Cell Counting Kit-8 (CCK-8; Sigma) according to the manufacturer’s instructions.

M. smegmatis ATCC 700084 = assay: In vitro antimycobacterial evaluation, MIC (broth dilution micro-method); assay type: cell-based, Mycobacterium smegmatis
Method: For M. smegmatis, the broth dilution micro-method in Middlebrook 7H9 medium (Difco) supplemented with ADC Enrichment (Difco) was used. […] Bacterial inocula were prepared by transferring colonies from culture to sterile water. The cell density was adjusted to 0.5 McFarland units using a densitometer (Densi-La-Meter, LIAP, Riga, Latvia). The final inoculum was made by 1:1000 dilution of the suspension with sterile water. Drug-free controls, sterility controls, and controls consisting of medium and DMSO alone were included. The determination of results was performed visually after three days of static incubation in the darkness at 37 °C in an aerobic atmosphere.

[4] = tested on: vancomycin-resistant E. faecalis VRE 368; assay: In vitro antibacterial evaluation, MIC by microtitration broth method; conditions: Enterococcus faecalis
[5] = Lipophilicity determination by HPLC; assay type: physicochemical; conditions: for log D6.5: HPLC C18, MeOH 72%/acetate-buffered saline pH 6.5 28%; for log D7.4: HPLC C18, MeOH 72%/acetate-buffered saline pH 7.4 28%; for log k: logarithm of capacity factor, HPLC C18, MeOH 72%/H2O 28%
Description: . A chromatographic column Symmetry® C18 5 μm, 4.6 × 250 mm, Part No. W21751W016 (Waters Corp, Milford, MA, USA) was used. The HPLC separation process was monitored by ChemStation for LC 3D systems (Agilent Technologies). Isocratic elution by a mixture of MeOH (HPLC grade, 72%) and H2O-HPLC Mili-Q grade (28%) as a mobile phase was used for the determination of capacity factor k. Isocratic elution by a mixture of MeOH (HPLC grade, 72%) and acetate-buffered saline (pH 7.4 and pH 6.5) (28%) as a mobile phase was used for the determination of distribution coefficient expressed as D7.4 and D6.5. The total flow of the column was 1.0 mL/min, injection was 20 μL, column temperature was 40 °C, and sample temperature was 10 °C. The detection wavelength of 210 nm was chosen. A KI methanolic solution was used for the determination of the dead times (tD). Retention times (tR) were measured in minutes. The capacity factors k were calculated according to the formula k = (tR − tD)/tD, where tR is the retention time of the solute, and tD is the dead time obtained using an unretained analyte. The distribution coefficients DpH were calculated according to the formula DpH = (tR − tD)/tD. Each experiment was repeated three times.

[6] = tested on: methicillin-resistant S. aureus SA 3202; assay: In vitro antibacterial evaluation, MIC by microtitration broth method; conditions: Staphylococcus aureus
[7] = tested on: vancomycin-resistant E. faecalis VRE 725B; assay: as above; conditions: Enterococcus faecalis
[8] = tested on: Staphylococcus aureus ATCC 29213; assay: as above
[9] = tested on: Staphylococcus aureus ATCC 29213; assay: Determination of minimum bactericidal concentrations (agar aliquot subculture); conditions: ATCC29213
[10] = tested on: methicillin-resistant S. aureus SA 3202; assay: as above; conditions: Staphylococcus aureus
[11] = tested on: methicillin-resistant S. aureus 63718; assay: as above; conditions: Staphylococcus aureus
S. aureus ATCC 29123 = assay: Crystal violet uptake (membrane permeability); conditions: 4× MIC, 1 h; compared to growth control and 1% Tween 20
[12] = tested on: vancomycin-resistant E. faecalis VRE 342B; assay: In vitro antibacterial evaluation, MIC by microtitration broth method; conditions: Enterococcus faecalis
[13] = tested on: methicillin-resistant S. aureus 63718; assay: as above; conditions: Staphylococcus aureus
[14] = tested on: methicillin-resistant S. aureus SA 630; assay: Determination of minimum bactericidal concentrations (agar aliquot subculture); conditions: Staphylococcus aureus
S. aureus ATCC 29213 = assay: MTT assay of bacterial viability (respiration); conditions: for Conc.: lowest multiple of MBC with at least 70% inhibition of S. aureus viability / Conc.: lowest multiple of MIC with at least 70% inhibition of S. aureus viability: MTT, 24 h; for viability of bacterial cells: at their MIC value or below
[15] = tested on: Mycobacterium tuberculosis H37Ra/ATCC 25177; assay: In vitro antimycobacterial evaluation, MIC (alamarBlue); conditions: MT
[16] = tested on: vancomycin-resistant E. faecalis VRE 725B; assay: Determination of minimum bactericidal concentrations (agar aliquot subculture); conditions: Enterococcus faecalis
[17] = tested on: Enterococcus faecalis ATCC 29212; assay: as above; conditions: ATCC29212
[18] = tested on: vancomycin-resistant E. faecalis VRE 342B; assay: as above; conditions: Enterococcus faecalis
[19] = tested on: vancomycin-resistant E. faecalis VRE 368; assay: as above; conditions: Enterococcus faecalis
[20] = Mycolicibacterium smegmatis, ATCC700084, 72 h, MS, three days, 37 °C, read-out: MIC

Compound	MIC ([1]; 24 h) [µM]	MIC ([2]; ATCC29212, 24 h)	IC50 [3] [nM]	MIC (M. smegmatis ATCC 700084; [20]) [µg/mL]	MIC ([4]; 24 h)	log D6.5 [5]	log D7.4 [5]	log k [5]	MIC ([6]; 24 h) [µM]	MIC ([7]; 24 h)	MIC ([8]; ATCC29213, 24 h) [µM]	MBC [9] [µM]	MBC [10] [µM]	MBC [11] [µM]	MIC ([12]; 24 h)	MIC ([13]; 24 h) [µM]	MBC [14] [µM]	Conc.: lowest multiple of MBC with at least 70% inhibition of S. aureus viability (S. aureus ATCC 29213)	Conc.: lowest multiple of MIC with at least 70% inhibition of S. aureus viability (S. aureus ATCC 29213)	MIC ([15]; 14 days, 37 °C)	other results
O=C(N[C@@H](CC1CCCCC1)C(=O)Nc1ccc(C(F)(F)F)cc1)c1cc(Cl)ccc1O [3g, 5-Chloro-N-[(2S)-3-cyclohexyl-1-oxo-1-{[4-(trifluoromethyl)phenyl]amino}propan-2-yl]-2-hydroxybenzamide]	1.07	546 µM	1400 ± 1100	> 256	546 µM	1.615	1.576	1.679	1.07	546 µM	1.07	1.07 (≈ 0.502 µg/mL)	1.07 (≈ 0.502 µg/mL)	2.13 (≈ 0.999 µg/mL)	546 µM	2.13	2.13 (≈ 0.999 µg/mL)	0.5× MIC (0.5× MBC)	0.5× MIC (0.5× MBC)	n.a. n.d. (n.a. = no activity (MIC > 256 µg/mL))	averaged lipophilicity value of log k/log D6.5/log D7.4 ([5]; average of the three experimental descriptors): 1.62 ± 0.05; effect on plasma membrane permeability (crystal violet uptake) (S. aureus ATCC 29123): did not affect plasma membrane permeability; S. aureus Viability Inhibition (S. aureus ATCC 29213; at 0.5× MIC (0.5× MBC)): 95.2%; viability of bacterial cells (S. aureus ATCC 29213): less than 70%
CCCC[C@H](NC(=O)c1cc(Cl)ccc1O)C(=O)Nc1ccc(C(F)(F)F)cc1 [3d, 5-Chloro-2-hydroxy-N-[(2S)-1-oxo-1-{[4-(trifluoromethyl)phenyl]amino}hexan-2-yl]benzamide]	2.33	> 256 µg/mL	4500 ± 1200	> 256	> 256 µg/mL	1.247	1.213	1.322	2.33	> 256 µg/mL	0.583	1.17 (≈ 0.502 µg/mL)	2.33 (≈ 0.999 µg/mL)	4.66 (≈ 2 µg/mL)	> 256 µg/mL	4.66	4.66 (≈ 2 µg/mL)			n.a. n.d. (n.a. = no activity (MIC > 256 µg/mL))	
O=C(N[C@@H](Cc1ccccc1)C(=O)Nc1ccc(C(F)(F)F)cc1)c1cc(Cl)ccc1O [3h]	1.08	277 µM	3300 ± 1000	> 256	277 µM	1.148	1.043	1.192	2.16	277 µM	1.08	2.16 (≈ 1 µg/mL)	2.16 (≈ 1 µg/mL)	0.27 (≈ 0.125 µg/mL)	277 µM	0.27	2.16 (≈ 1 µg/mL)	2× MIC (2× MBC)	2× MIC (2× MBC)	n.a. n.d. (n.a. = no activity (MIC > 256 µg/mL))	effect on plasma membrane permeability (crystal violet uptake) (S. aureus ATCC 29123): did not affect plasma membrane permeability; S. aureus Viability Inhibition (S. aureus ATCC 29213; at 2× MIC (2× MBC)): 94%
CC(C)C[C@H](NC(=O)c1cc(Cl)ccc1O)C(=O)Nc1ccc(C(F)(F)F)cc1 [3f]	1.17	4.66 µM	1900 ± 1100		9.33 µM	1.256	1.161	1.266	1.17	4.66 µM	1.17	1.17 (≈ 0.502 µg/mL)	1.17 (≈ 0.502 µg/mL)	0.07 (≈ 0.03 µg/mL)		0.07	1.17 (≈ 0.502 µg/mL)	1× MIC (1× MBC)	1× MIC (1× MBC)	18.7 µM and 18.7 n.d. µM	MBC [16]: 37.3 µM (≈ 16 µg/mL); MIC (M. smegmatis ATCC 700084; MS, three days, 37 °C): 18.7 n.d. µM; MIC (M. smegmatis ATCC 700084; Mycolicibacterium smegmatis, ATCC700084, 72 h): 18.7 µM; MBC [17]: 9.33 µM (≈ 4 µg/mL); effect on plasma membrane permeability (crystal violet uptake) (S. aureus ATCC 29123): did not affect plasma membrane permeability; MBC [18]: 18.7 µM (≈ 8.02 µg/mL); MBC [19]: 18.7 µM (≈ 8.02 µg/mL); S. aureus Viability Inhibition (S. aureus ATCC 29213; at 1× MIC (1× MBC)): 95.3%; viability of bacterial cells (S. aureus ATCC 29213): less than 70%
CC(C)C[C@H](NC(=O)[C@H](Cc1ccccc1)NC(=O)c1cc(Cl)ccc1O)C(=O)Nc1ccc(C(F)(F)F)cc1 [6b]	55.6	> 256 µg/mL	1600 ± 1000	> 256	> 256 µg/mL	1.528	1.453	1.547	55.6	> 256 µg/mL	55.6	112 (≈ 64.5 µg/mL)			> 256 µg/mL	444	444 (≈ 256 µg/mL)			n.a. n.d. (n.a. = no activity (MIC > 256 µg/mL))	
CC1(C)S[C@@H]2[C@H](NC(=O)[C@H](N)c3ccccc3)C(=O)N2[C@H]1C(=O)O [APC, ampicillin, reference compound]	45.8	2.81 µM			11.5 µM				45.8	11.5 µM	5.72	> 5.72	> 45.8	> 45.8	11.5 µM	45.8	> 45.8	8× MIC (>8× MBC)	8× MIC (>8× MBC)		MBC [16]: 11.5 µM (≈ 4.02 µg/mL); MBC [17]: 2.81 µM (≈ 0.982 µg/mL); MBC [18]: 11.5 µM (≈ 4.02 µg/mL); MBC [19]: 11.5 µM (≈ 4.02 µg/mL); S. aureus Viability Inhibition (S. aureus ATCC 29213; at 8× MIC (>8× MBC)): 90.0%
CCC[C@H](NC(=O)c1cc(Cl)ccc1OCc1ccccc1)C(=O)Nc1ccc(C(F)(F)F)cc1 [2b, 2-(Benzyloxy)-5-chloro-N-[(2S)-1-oxo-1-{[4-(trifluoromethyl)phenyl]amino}pentan-2-yl]benzamide]			> 10000			1.742	1.731	1.709													MIC [1]: > 256 µg/mL; MIC ([2]; ATCC29212): > 256 µg/mL; MIC (M. smegmatis ATCC 700084; Mycolicibacterium smegmatis, ATCC700084): > 256 µg/mL; MIC [4]: > 256 µg/mL; MIC [6]: > 256 µg/mL; MIC [7]: > 256 µg/mL; MIC ([8]; ATCC29213): > 256 µg/mL; MIC [12]: > 256 µg/mL; MIC [13]: > 256 µg/mL; MIC ([15]; Table S2): > 256 µg/mL
